Results published in patent US20110092440A1, “METHOD OF REGULATING CELL GROWTH USING A PROTEASOME INHIBITOR” (THE BOARD OF TRUSTEES OF THE UNIVERSITY OF ILLINOIS, priority 2008, published 2011).
Non-standard residues stand in square brackets, D forms with d. Residues, ends and D or L forms follow the SMILES beside them. *: point of attachment. Nva = CCC[C@H](N)C(=O)O; Cbz = O=C(OCc1ccccc1)*; OtBu = CC(C)(C)O*

Tests used:
[1] = system: FoxM1 protein; assay: Immunoblot analysis of FoxM1 protein levels in tumor cells; type: cell-based, human; conditions: U266, RPMI8226, HL-60 and U2OS cells, 24 hours, FIG. 2B
Description: The effects of proteasome inhibitors on FoxM1 protein expression were also examined. U266 and RPMI8226, both multiple myeloma cells, HL-60 leukemia cells and human U2OS osteosarcoma cells were treated with proteasome inhibitors MG115, MG132 and VELCADE® for 24 hours. Cell lysates were harvested and the FoxM1 protein levels were analyzed by immunoblot analysis. […] See also U.S. Patent Application Publication No. 2008/0152618.

[2] = system: U266 and RPMI8226 multiple myeloma, HL-60 leukemia and U2OS osteosarcoma cells; assay: Annexin V-PE/7AAD staining, FACS analysis of apoptosis; type: cell-based, human; conditions: U266, RPMI8226, HL-60 and U2OS cells, FIG. 3
Description: Proteasorne inhibitor-induced apoptosis was further quantified by using Annexin V-PE/7AAD staining. U266 and RPMI8226 multiple myeloma, HL-60 leukemia and U2OS osteosarcoma cells were cultured in the presence of proteasome inhibitors MG115, MG132 and VELCADE®. Following proteasome inhibitor treatment (or DMSO in the control), cells were stained with Annexin V-PE/7AAD (BD-Pharmingen, Franklin Lakes, N.J.) and then analyzed by Fluorescence-activated Cell Sorting (FACS). […] The concentrations of proteasome inhibitors used in the experiments shown in FIG. 3 were the same as those in FIG. 2. The percentages of apoptotic cells were shown in the parentheses in FIG. 3. The induction of apoptosis correlated with the suppression of FoxM1 (see FIG. 3 and FIG. 2B).

[3] = system: FoxM1 transcriptional activity; assay: FoxM1-dependent luciferase assay in U2OS-C3-Luc cells; type: cell-based, human; conditions: 1 μg/ml doxycycline, 24 hours, FIG. 2A
Description: The effects of proteasome inhibitors on FoxM1 transcriptional activity were tested by examining FoxM1-dependent luciferase activity in a luciferase assay. It was previously reported that thiazole antibiotics inhibited FoxM1-dependent transcriptional activity by measuring the reduction of luciferase activity in a U2OS-derived cell line stably expressing doxycycline-inducible FoxM1 and FoxM1-dependent luciferase (the U2OS-C3-Luc cell line). See U.S. Patent Application Publication No. 2008/0152618; Radhakrishnan et al. 2006; and Bhat et al., 2009. The same cell line was used in this experiment. U2OS-C3-Luc cells were treated with a combination of 1 μg/ml doxycycline and proteasome inhibitors at indicated concentrations for 24 hours, and the luciferase activity was measured. The luciferase activity was determined by using either the Luciferase Assay System (Promega, Madison, Wis.) or the Dual-Luciferase reporter assay system (Promega) according to the manufacturer's instructions.
The results shown in FIG. 2A (1) were normalized by the amount of proteins in the sample; and the results shown in FIG. 2A (2) were normalized using the Dual-luciferase reporter assay system (Promega).

[4] = target: T1, 20S proteasome (Homo sapiens, UniProt P28074); assay: 20S Proteasome Activity Assay Kit (LLVY-AMC cleavage); type: biochemical; conditions: 25 μM, 15 minutes pre-incubation, 1 hour at 37° C., FIG. 1C
T1 construct: Millipore
Description: The effects of Siomycin A and thiostrepton on the 20S proteasome were compared with proteasome inhibitors MG132 and lactacystin using the Proteasome Activity Assay Kit following the manufacturer's instructions (Millipore). […] Proteasome samples were prepared according to the manufacturer's instructions. […] Samples were incubated for 1 hour at 37° C. and the fluorescence derived from the cleaved AMC was detected and quantified using a 380/460 nm filter in a fluorometer (Spectra Max GeminiXS, Molecular Devices, Sunnyvale, Calif.).

[5] = system: FoxM1 transcriptional activity; conditions: previously reported (US 2008/0152618; Radhakrishnan et al., 2006); cited from earlier work
[6] = system: Hdm2, p53, Mcl-1 and p21 protein levels in U2OS cells; assay: Immunoblot analysis of Hdm2, p53, Mcl-1 and p21 protein levels in U2OS cells; type: cell-based, human; conditions: FIG. 1A
From the text: The effects of Siomycin A on the protein levels of these genes in the cells were compared with those of a proteasome inhibitor MG132.

[7] = system: MDAMB231 cells; assay: Apoptosis induction by Siomycin A alone, MDAMB231; type: cell-based, human; conditions: data not shown
[8] = system: BxPC3 cells; assay: Apoptosis induction by Siomycin A alone, BxPC3; type: cell-based, human; conditions: data not shown
[9] = system: NF-κB transcriptional activity; assay: TNF-α-induced NF-κB-dependent luciferase assay in 293T-NF-κB-Luc cells; type: cell-based; conditions: 10 ng/mL TNF-α 24 hours, then compound 10 hours, FIG. 1B
Description: Proteasome inhibitors were known to inhibit the activity of NF-κB via the stabilization of its negative regulator IκB-α (Nakanishi et al., 2005, Nat Rev Cancer 5:297-309; Nencioni et al., 2007). The effects of Siomycin A and thiostrepton on NF-κB-dependent transcriptional activity were tested. 293T cells stably transfected with an NF-κB-Luc reporter construct (293T-NF-κB-Luc) were induced with 10 ng/mL TNF-αfor 24 hours. The next day, the cells were treated with Siomycin A or thiostrepton for an additional 10 hours, and followed by luciferase assay. The luciferase activity was determined by using the Luciferase Assay System (Promega, Madison, Wis.) according to the manufacturer's instructions. The data were normalized based on the amount of proteins in the samples.

[10] = system: Mia Paca cells; assay: Apoptosis induction by Siomycin A alone, Mia Paca; type: cell-based, human; conditions: data not shown
[11] = system: HPAC cells; assay: Apoptosis induction by Siomycin A alone, HPAC; type: cell-based, human; conditions: data not shown
[12] = system: U2OS-C3 cells; assay: Active caspase 3 immunoblot in U2OS-C3 cells with doxycycline-induced FoxM1 over-expression; type: cell-based, human; conditions: compound 24 hours, FIG. 4
Description: Over-expression of FoxM1 was often observed in a variety of tumors. See Pilarsky et al., 2004, Neoplasia 6(6):744-750; Chan et al., 2008, J Pathol 215(3):245-252. A U2OS-derived cell line stably expressing doxycycline-inducible FoxM1-GFP fusion protein (U2OS-C3) was used to examine the role of FoxM1 in apoptosis induced by proteasome inhibitors. Exogenous FoxM1 expression was induced by doxycycline and the following day the cells were treated with different concentrations of VELCADE® for 24 hours.

[13] = system: Prostate cancer DU145 and PC3 cells; type: cell-based; conditions: data not shown
[14] = toxicity studies, Aghajanian et al., 2002; cited from earlier work

Row | Compound | levels of FoxM1 protein [1] | induction of apoptosis (Annexin V-PE/7AAD) [2] | FoxM1 transcriptional activity (luciferase) [3] | proteolytic activity of the 20S proteasome (free AMC) [4] | other results
1 | CCC[C@@H](C=O)NC(=O)[C@H](CC(C)C)NC(=O)[C@H](CC(C)C)NC(=O)OCc1ccccc1 [MG115, Z-L-leucyl-L-leucyl-L-norvalinal] (Cbz-Leu-Leu-[Nva]-aldehyde) | the levels of FoxM1 protein decreased | induced apoptosis in the cells | inhibited FoxM1 transcriptional activity |  | 
2 | CC(C)C[C@@H](C=O)NC(=O)[C@H](CC(C)C)NC(=O)[C@H](CC(C)C)NC(=O)OCc1ccccc1 [MG132, Z-L-leucyl-L-leucyl-L-leucinal] (Cbz-Leu-Leu-Leu-aldehyde) | the levels of FoxM1 protein decreased | induced apoptosis in the cells | inhibited FoxM1 transcriptional activity | the decrease was not as prominent as that by MG132 or lactacystin | 
3 | CC[C@H](C)[C@H](NC(=O)OCc1ccccc1)C(=O)N[C@@H](CCC(=O)OC(C)(C)C)C(=O)N[C@@H](C)C(=O)N[C@H](C=O)CC(C)C [PSI, N-benzyloxycarbony-Ile-Glu-(O-t-butyl)-Ala-leucinal] (Cbz-IE(OtBu)AL-aldehyde) |  |  | inhibited FoxM1 transcriptional activity |  | 
4 | C=C(NC(=O)C(=C)NC(=O)c1csc(C2=N[C@@H]3c4csc(n4)[C@H]4NC(=O)c5csc(n5)[C@H]([C@](C)(O)[C@@H](C)O)NC(=O)[C@H]5CSC(=N5)/C(=C/C)NC(=O)[C@H]([C@@H](C)O)NC(=O)c5csc(n5)[C@]3(CC2)NC(=O)[C@H](C)NC(=O)C(=C)NC(=O)C(=C)NC(=O)[C@H](C(C)C)N[C@@H]2C=Cc3c([C@H](C)O)cc(nc3[C@H]2O)C(=O)O[C@@H]4C)n1)C(N)=O [Siomycin A] |  |  |  | decreased proteolytic activity of the 20S proteasome | FoxM1 transcriptional activity and FoxM1 protein expression, reported previously [5]: inhibited FoxM1 transcriptional activity as well as FoxM1 protein expression in cells; cellular protein levels of Hdm2, p53, Mcl-1 and p21 [6]: increased the cellular protein levels of Hdm2, p53, Mcl-1 and p21; concentration required to induce apoptosis when used alone [7]: 5 µM; concentration required to induce apoptosis when used alone [8]: 5 µM; TNF-α-induced NF-κB transcriptional activity [9]: suppressed TNF-α-induced NF-κB transcriptional activity; concentration required to induce apoptosis when used alone [10]: 5 µM; concentration required to induce apoptosis when used alone [11]: 10 to 15 µM
5 | CC(C)C[C@H](NC(=O)[C@H](Cc1ccccc1)NC(=O)c1cnccn1)B(O)O [VELCADE®, pyrazylcarbony-phenylalanyl-leucyl-boronate] | the levels of FoxM1 protein decreased | induced apoptosis in the cells | inhibited FoxM1 transcriptional activity |  | active caspase 3 expression in cells over-expressing FoxM1 [12]: VELCADE®-induced active caspase 3 expression was reduced in cells that over-expressed FoxM1; minimal concentration required for induction of caspase 3 expression, compound alone [13]: 50 nM; therapeutic index [14]: very narrow therapeutic index
6 | COc1cccc2c1C(=O)c1c(O)c3c(c(O)c1C2=O)C[C@@](O)(C(=O)CO)C[C@@H]3O[C@H]1C[C@H](N)[C@H](O)[C@H](C)O1 [doxorubicin] |  |  |  |  | active caspase 3 expression in cells over-expressing FoxM1 [12]: over-expression of FoxM1 did not protect against doxorubicin-induced caspase 3 expression
7 | CC(=O)N[C@@H](CSC(=O)[C@]1([C@@H](O)C(C)C)NC(=O)[C@H](C)[C@@H]1O)C(=O)O [lactacystin] |  |  |  | the decrease was not as prominent as that by MG132 or lactacystin | 
8 | C=C(NC(=O)C(=C)NC(=O)c1csc(C2=N[C@@H]3c4csc(n4)[C@H]4NC(=O)c5csc(n5)[C@H]([C@](C)(O)[C@@H](C)O)NC(=O)[C@H]5CSC(=N5)/C(=C/C)NC(=O)[C@H]([C@@H](C)O)NC(=O)c5csc(n5)[C@]3(CC2)NC(=O)[C@H](C)NC(=O)C(=C)NC(=O)[C@H](C)NC(=O)[C@H]([C@@H](C)CC)N[C@@H]2C=Cc3c([C@H](C)O)cc(nc3[C@H]2O)C(=O)O[C@@H]4C)n1)C(N)=O [thiostrepton] |  |  |  | decreased proteolytic activity of the 20S proteasome | FoxM1 transcriptional activity and FoxM1 protein expression, reported previously [5]: inhibited FoxM1 transcriptional activity as well as FoxM1 protein expression in cells; minimal concentration required for induction of caspase 3 expression, compound alone [13]: 3000 nM; TNF-α-induced NF-κB transcriptional activity [9]: suppressed TNF-α-induced NF-κB transcriptional activity
